The results in this text go back to PMC10890502, “Prevention of Protease-Induced Degradation of Desmoplakin via Small Molecule Binding” (Journal of Personalized Medicine, 2024).

What all share (experiment): biochemical
The target of experiment [1] is T1, sDSP (DSP178–627) (Homo sapiens, UniProt P15924, S442F).
T1 construct: gene DSP; N-terminal spectrin repeat/SH3 fragment, residues 178-627; pGEX-1 GST fusion cut with thrombin, E. coli BL21(DE3); fluorescein-5-maleimide label on exposed cysteines (C405, C524)
T1 sequence (P15924 178-627 S442F): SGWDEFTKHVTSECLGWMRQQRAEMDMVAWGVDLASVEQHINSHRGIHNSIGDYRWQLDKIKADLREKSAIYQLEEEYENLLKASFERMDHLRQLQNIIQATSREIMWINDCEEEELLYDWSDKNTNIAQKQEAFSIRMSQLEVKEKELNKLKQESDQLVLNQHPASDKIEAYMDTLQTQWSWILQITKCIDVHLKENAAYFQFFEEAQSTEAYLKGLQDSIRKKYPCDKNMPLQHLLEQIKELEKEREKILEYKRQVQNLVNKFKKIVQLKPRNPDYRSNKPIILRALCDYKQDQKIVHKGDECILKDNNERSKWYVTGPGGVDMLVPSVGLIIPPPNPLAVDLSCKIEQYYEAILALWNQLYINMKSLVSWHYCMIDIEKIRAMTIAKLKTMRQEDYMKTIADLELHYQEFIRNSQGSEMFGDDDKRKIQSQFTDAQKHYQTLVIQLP
More on the design: FITC-sDSP S442F degradation by trypsin (1:50), fluorescence polarization after 60 min, per cent of protease-only control. The note with it: degradation rate of DSP S442F by trypsin; read-out: % of control remaining. The procedure: Fluorescence Polarization (FP) assays were conducted in […] format using a BioTek Synergy H4 plate reader with polarization capacity (Agilent; Savage, MD, USA). All samples were run at 25 °C using PBS pH 7.4, 1 mM DTT, 10 mM CaCl2, 5% DMSO, and […] FITC- DSP178–627, with 500 μM of each drug. Trypsin, chymotrypsin, or calpain at either 1:50, 1:50, or 1:20 concentration was added directly before data collection with an average void time of 2 min. Control experiments in each plate were conducted in triplicate and consisted of DSP178–627 + DMSO + protease as a positive control and DSP178–627 + DMSO + [compound left out] + protease as a negative control. Only plates that had functional positive and negative controls were used in data analysis. Samples were excited at 485 nm, and polarization was monitored at 528 nm. Data were collected at 5 min increments for 1–3 h. A mutation that partially occludes the DSP calpain cleavage site rescues DSP protein levels. We next assessed whether protease-dependent cleavage can also be blocked by small molecules. We screened 2496 FDA-approved drugs for their ability to prevent trypsin-dependent cleavage of sDSP S442F in our FP assay (Figure 3A). […] No change in fluorescence polarization after an hour is indicative of 0% protein degradation rate, as occurs in the [compound left out] positive control. […] (A) sDSP S442F degradation in the presence of trypsin plus 2496 compounds from the Cayman chemical “FDA library”. A degradation rate of 100% indicates the same desmoplakin degradation rate with and without the addition of 500 μM drug while a 0% rate indicates no degradation, as judged by fluorescent polarization values after 1 h. A trypsin-only control and a trypsin + [compound left out] control is indicated. Protection (red lines) was arbitrarily set between 33% and −10%. […] (B) Example of how the data in A was generated.

For experiment [2], the target named is T2, sDSP (DSP178–627) (Homo sapiens, UniProt P15924).
T2 construct: gene DSP; N-terminal spectrin repeat/SH3 fragment, residues 178-627; pGEX-1 GST fusion cut with thrombin, E. coli BL21(DE3); fluorescein-5-maleimide label on exposed cysteines (C405, C524)
T2 sequence (P15924 178-627): T1 sequence (P15924 178-627 S442F) with F265S
On the set-up: FITC-sDSP degradation by calpain (1:20), fluorescence polarization after 60 min, per cent of calpain-only control. Particulars: degradation rate of DSP WT by calpain; read-out: % of control remaining. The procedure:
(§1) Fluorescence Polarization (FP) assays were conducted in […] format using a BioTek Synergy H4 plate reader with polarization capacity (Agilent; Savage, MD, USA). All samples were run at 25 °C using PBS pH 7.4, 1 mM DTT, 10 mM CaCl2, 5% DMSO, and […] FITC- DSP178–627, with 500 μM of each drug. Trypsin, chymotrypsin, or calpain at either 1:50, 1:50, or 1:20 concentration was added directly before data collection with an average void time of 2 min. Control experiments in each plate were conducted in triplicate and consisted of DSP178–627 + DMSO + protease as a positive control and DSP178–627 + DMSO + [compound left out] + protease as a negative control. Only plates that had functional positive and negative controls were used in data analysis. Samples were excited at 485 nm, and polarization was monitored at 528 nm. Data were collected at 5 min increments for 1–3 h. […] Therefore, we next tested whether these 62 compounds also prevent wildtype and variant DSP degradation in the presence of calpain. […] (A) Normalized fluorescent polarization of WT and sDSP variants in the presence of a 1:20 ratio of calpain plus 500 μM drug, as compared to calpain alone (black) (B) Identity and chemical structure of the six best-performing compounds.

The target of experiment [3] is T3, sDSP (DSP178–627) (Homo sapiens, UniProt P15924, R451G).
T3 construct: gene DSP; N-terminal spectrin repeat/SH3 fragment, residues 178-627; pGEX-1 GST fusion cut with thrombin, E. coli BL21(DE3); fluorescein-5-maleimide label on exposed cysteines (C405, C524)
T3 sequence (P15924 178-627 R451G): T1 sequence (P15924 178-627 S442F) with F265S, R274G
On the set-up: FITC-sDSP degradation by calpain (1:20), fluorescence polarization after 60 min, per cent of calpain-only control. Particulars: degradation rate of DSP R451G by calpain; read-out: % of control remaining. The procedure: as §1

The target in experiment [4] is T1, sDSP (DSP178–627). More on the design: FITC-sDSP degradation by calpain (1:20), fluorescence polarization after 60 min, per cent of calpain-only control. Particulars: degradation rate of DSP S442F by calpain; read-out: % of control remaining. The procedure:
as §1

The target of a further experiment is T4, sDSP S507F (Homo sapiens, UniProt P15924, S507F).
T4 construct: gene DSP; N-terminal fragment, residues 178-627
On the set-up: FITC-sDSP degradation by calpain (1:20), fluorescence polarization after 60 min, per cent of calpain-only control. The note with it: degradation rate of DSP S507F by calpain; read-out: % of control remaining. The method, then:
as §1

Changes are numbered by the printed parent chain. Structures can show the parent of a compound that is named as a salt. Where two headings read alike, the source gives them in different places.

T4 sequence (P15924 whole entry S507F, the tested form may be a part): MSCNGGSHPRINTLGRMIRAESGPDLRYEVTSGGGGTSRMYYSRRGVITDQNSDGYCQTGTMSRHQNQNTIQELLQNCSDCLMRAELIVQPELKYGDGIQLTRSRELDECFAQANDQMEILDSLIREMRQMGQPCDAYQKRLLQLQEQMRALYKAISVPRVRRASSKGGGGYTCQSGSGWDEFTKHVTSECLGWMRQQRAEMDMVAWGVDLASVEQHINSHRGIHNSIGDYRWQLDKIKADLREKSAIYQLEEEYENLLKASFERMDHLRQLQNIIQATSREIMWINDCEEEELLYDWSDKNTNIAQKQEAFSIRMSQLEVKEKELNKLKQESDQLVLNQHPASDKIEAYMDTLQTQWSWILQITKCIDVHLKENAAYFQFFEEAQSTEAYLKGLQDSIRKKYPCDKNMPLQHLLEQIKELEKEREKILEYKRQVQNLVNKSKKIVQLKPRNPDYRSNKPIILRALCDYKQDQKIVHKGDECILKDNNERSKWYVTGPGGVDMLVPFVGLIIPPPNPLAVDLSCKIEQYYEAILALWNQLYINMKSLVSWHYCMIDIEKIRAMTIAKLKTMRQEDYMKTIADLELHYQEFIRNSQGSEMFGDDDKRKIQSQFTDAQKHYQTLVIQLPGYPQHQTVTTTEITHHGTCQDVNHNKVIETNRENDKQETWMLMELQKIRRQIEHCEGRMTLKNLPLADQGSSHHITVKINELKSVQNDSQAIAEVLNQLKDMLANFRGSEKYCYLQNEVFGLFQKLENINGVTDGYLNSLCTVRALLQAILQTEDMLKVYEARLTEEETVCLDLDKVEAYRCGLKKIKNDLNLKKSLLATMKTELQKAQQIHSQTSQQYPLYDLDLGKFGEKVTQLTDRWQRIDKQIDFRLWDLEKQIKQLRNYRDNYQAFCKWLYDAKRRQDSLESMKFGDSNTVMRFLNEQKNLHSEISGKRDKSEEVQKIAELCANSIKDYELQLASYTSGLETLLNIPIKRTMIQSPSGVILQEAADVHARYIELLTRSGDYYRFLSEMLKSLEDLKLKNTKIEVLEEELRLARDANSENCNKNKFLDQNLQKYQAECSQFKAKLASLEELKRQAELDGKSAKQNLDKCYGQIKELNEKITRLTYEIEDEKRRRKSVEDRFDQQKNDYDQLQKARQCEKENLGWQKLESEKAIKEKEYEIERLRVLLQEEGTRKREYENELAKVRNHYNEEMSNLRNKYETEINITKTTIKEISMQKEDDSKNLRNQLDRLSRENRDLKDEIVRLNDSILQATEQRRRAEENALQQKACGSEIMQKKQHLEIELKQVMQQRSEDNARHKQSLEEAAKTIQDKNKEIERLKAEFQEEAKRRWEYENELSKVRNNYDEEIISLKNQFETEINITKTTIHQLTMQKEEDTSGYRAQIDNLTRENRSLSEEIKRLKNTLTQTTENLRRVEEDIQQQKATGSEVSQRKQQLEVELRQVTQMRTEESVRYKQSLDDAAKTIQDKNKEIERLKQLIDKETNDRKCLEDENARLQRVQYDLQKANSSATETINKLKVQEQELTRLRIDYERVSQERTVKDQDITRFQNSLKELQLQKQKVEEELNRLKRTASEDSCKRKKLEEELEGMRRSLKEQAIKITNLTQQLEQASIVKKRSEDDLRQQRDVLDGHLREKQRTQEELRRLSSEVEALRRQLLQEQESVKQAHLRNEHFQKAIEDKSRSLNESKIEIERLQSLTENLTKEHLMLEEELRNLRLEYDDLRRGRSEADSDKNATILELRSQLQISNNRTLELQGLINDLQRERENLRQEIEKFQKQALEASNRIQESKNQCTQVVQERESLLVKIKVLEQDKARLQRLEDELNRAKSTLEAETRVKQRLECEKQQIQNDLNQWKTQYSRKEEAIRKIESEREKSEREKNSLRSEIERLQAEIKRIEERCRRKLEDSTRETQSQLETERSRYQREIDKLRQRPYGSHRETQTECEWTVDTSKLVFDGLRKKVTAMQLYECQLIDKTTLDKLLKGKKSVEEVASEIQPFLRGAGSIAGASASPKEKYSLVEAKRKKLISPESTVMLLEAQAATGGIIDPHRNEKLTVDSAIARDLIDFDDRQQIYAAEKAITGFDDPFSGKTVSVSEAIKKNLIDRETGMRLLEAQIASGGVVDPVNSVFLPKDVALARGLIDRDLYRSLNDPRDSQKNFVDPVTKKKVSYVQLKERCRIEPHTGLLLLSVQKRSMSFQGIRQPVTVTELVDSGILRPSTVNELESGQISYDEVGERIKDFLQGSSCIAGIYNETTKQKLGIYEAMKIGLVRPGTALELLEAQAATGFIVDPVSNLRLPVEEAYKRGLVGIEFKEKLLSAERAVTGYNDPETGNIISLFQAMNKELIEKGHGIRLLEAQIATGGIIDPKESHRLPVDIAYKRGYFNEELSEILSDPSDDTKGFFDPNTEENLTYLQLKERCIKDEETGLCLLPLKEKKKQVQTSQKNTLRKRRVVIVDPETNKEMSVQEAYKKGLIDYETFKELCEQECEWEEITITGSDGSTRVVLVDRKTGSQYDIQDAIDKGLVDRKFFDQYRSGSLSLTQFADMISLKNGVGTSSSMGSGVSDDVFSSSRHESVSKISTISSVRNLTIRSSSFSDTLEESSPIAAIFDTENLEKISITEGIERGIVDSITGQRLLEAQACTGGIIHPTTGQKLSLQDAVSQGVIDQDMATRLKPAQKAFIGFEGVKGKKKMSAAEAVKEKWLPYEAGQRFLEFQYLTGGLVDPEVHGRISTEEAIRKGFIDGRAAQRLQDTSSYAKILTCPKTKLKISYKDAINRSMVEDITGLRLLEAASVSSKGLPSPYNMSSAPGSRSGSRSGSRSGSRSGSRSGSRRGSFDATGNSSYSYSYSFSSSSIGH

With `CC(=O)O[C@H]1C(=O)[C@@]2(C)[C@H]([C@H](OC(=O)c3ccccc3)[C@]3(O)C[C@H](OC(=O)[C@H](O)[C@@H](NC(=O)c4ccccc4)c4ccccc4)C(C)=C1C3(C)C)[C@]1(OC(C)=O)CO[C@@H]1C[C@@H]2O` [Taxol], the remaining activity at 500 µM is 31% at sDSP (DSP178–627) [1]; 48% at sDSP (DSP178–627) [2]; 38% at sDSP (DSP178–627) [3]; 87% at sDSP (DSP178–627) [4]; 34% at sDSP S507F.

Regarding `CCCCc1ncc(/C=C(\Cc2cccs2)C(=O)O)n1Cc1ccc(C(=O)O)cc1` [eprosarten mesylate], the remaining activity at 500 µM at sDSP (DSP178–627) [1] is 32%; on sDSP (DSP178–627) [2] it was 30%; at sDSP (DSP178–627) [3], 33%; on sDSP (DSP178–627) [4], 26%; at sDSP S507F, 31%.

Consider `CCCCCCCCCCCCCCCC(=O)NCCO` [palmitoylethanolamide], for which the remaining activity at 500 µM on sDSP (DSP178–627) [1] was 26%; at sDSP (DSP178–627) [2], 22%; at sDSP (DSP178–627) [3], 8%; on sDSP (DSP178–627) [4], -3%; on sDSP S507F, 3%.

Take `CC(C)=CCC/C(C)=C/CC/C(C)=C/CSc1ccccc1C(=O)O` [salirasib]: the remaining activity at 500 µM is -8% at sDSP (DSP178–627) [1]; 32% on sDSP (DSP178–627) [2]; -5% on sDSP (DSP178–627) [3]; 29% on sDSP (DSP178–627) [4]; 26% at sDSP S507F.
